According to the supplement of paper PMC10331698:
± gives the standard deviation of the averaged measurements.

Experiments:
Experiment in all cases: level (log10 ratio to DMSO vehicle control); higher = higher biomarker level / cell amount than vehicle control
Settings in all cases: in DMSO
Azathioprine = compound: Cn1cnc([N+](=O)[O-])c1Sc1ncnc2[nH]cnc12 [Azathioprine]
Experimental: (§1)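 BioMAP Diversity Plus panel of 12 human primary cell co-culture systems (3C, 4H, LPS, SAg, BT, BF4T, BE3C, CASM3C, HDF3CGF, KF3CT, MyoF, Mphg). Compounds were added 1 h before stimulation and left for 24 h (MyoF 48 h; BT 72 h for soluble read-outs or 6 d for IgG). Biomarkers were read by ELISA, cytotoxicity by SRB, PBMC viability and proliferation by Alamar Blue. Each well value was divided by the mean of 8 DMSO control wells on the same plate and log10 transformed; duplicate blinded samples were tested at 4 concentrations.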

Perfluorooctanamidine = compound: N=C(N)C(F)(F)C(F)(F)C(F)(F)C(F)(F)C(F)(F)C(F)(F)C(F)(F)F [Perfluorooctanamidine]
Experimental: as §1

[1] = compound: O=C(O)C(F)(F)C(F)(F)C(F)(F)C(F)(F)C(F)(F)C(F)(F)C(F)(F)C(F)(F)C(F)(F)C(F)(F)C(F)(F)C(F)(F)F [Perfluorotridecanoic acid]
Experimental: as §1

[2] = compound: O=C(O)CCC(F)(F)C(F)(F)C(F)(F)F [3:3 Fluorotelomer carboxylic acid]
Experimental: as §1

[3] = compound: O=P(O)(O)CCC(F)(F)C(F)(F)C(F)(F)C(F)(F)C(F)(F)C(F)(F)C(F)(F)C(F)(F)F [((Perfluorooctyl)ethyl)phosphonic acid]
Experimental: as §1

[4] = compound: OCC(F)(F)C(F)(F)C(F)(F)C(F)(F)C(F)(F)C(F)F [1H,1H,7H-Dodecafluoro-1-heptanol]
Experimental: as §1

Row | Test System | level (log10) (Azathioprine; 1400 nM) | level (log10) (Azathioprine; 4200 nM) | level (log10) (Azathioprine; 13000 nM) | level (log10) (Azathioprine; 38000 nM) | level (log10) (Perfluorooctanamidine; 6700 nM) | level (log10) (Perfluorooctanamidine; 20000 nM) | level (log10) (Perfluorooctanamidine; 60000 nM) | level (log10) ([1]; 1500 nM) | level (log10) ([1]; 4400 nM) | level (log10) ([1]; 13000 nM) | level (log10) ([1]; 40000 nM) | level (log10) ([2]; 6700 nM) | level (log10) ([2]; 20000 nM) | level (log10) ([2]; 60000 nM) | level (log10) ([3]; 6700 nM) | level (log10) ([3]; 20000 nM) | level (log10) ([3]; 60000 nM) | level (log10) ([4]; 6700 nM) | level (log10) ([4]; 20000 nM) | level (log10) ([4]; 60000 nM)
1 | SAg:CCL2/MCP-1 | -0.004 ± 0.017 | -0.0275 ± 0.0064 | -0.054 ± 0.011 | -0.112 ± 0.056 | -0.004 ± 0.0014 | 0.0225 ± 0.005 | -0.015 | -0.013 ± 0.016 | -0.0275 ± 0.0035 | -0.0265 ± 0.0064 | 0.005 ± 0.014 | 0.005 ± 0.0014 | -0.0145 ± 0.016 | 0.0145 ± 0.028 | 0.006 ± 0.0042 | 0.004 ± 0.016 | -0.0195 ± 0.053 | 0.0005 ± 0.005 | -0.0035 ± 0.00071 | 0.0225 ± 0.029
2 | SAg:CD38 | 0.0035 ± 0.0035 | -0.0035 ± 0.00071 | -0.0265 ± 0.013 | -0.0765 ± 0.03 | 0.009 ± 0.017 | 0.001 ± 0.013 | -0.074 | -0.017 ± 0.014 | -0.037 ± 0.02 | -0.0245 ± 0.018 | -0.027 ± 0.0028 | -0.012 ± 0.024 | 0.008 ± 0.013 | 0.0015 ± 0.0035 | -0.015 ± 0.024 | -0.0155 ± 0.005 | -0.0945 ± 0.023 | 0.0005 ± 0.013 | 0.0105 ± 0.019 | 0.0075 ± 0.022
3 | SAg:CD40 | -0.0125 ± 0.042 | -0.0095 ± 0.019 | -0.055 ± 0.025 | -0.118 ± 0.033 | -0.0055 ± 0.0021 | 0.014 ± 0.023 | -0.093 | -0.021 ± 0.017 | -0.071 ± 0.0057 | -0.0705 ± 0.06 | -0.497 ± 0.044 | -0.002 ± 0.0071 | -0.008 ± 0.011 | -0.015 ± 0.0042 | -0.0305 ± 0.0078 | -0.0405 ± 0.018 | -0.136 ± 0.025 | 0.015 ± 0.0099 | 0 ± 0.018 | -0.0015 ± 0.005
4 | SAg:CD62E/E-Selectin | -0.007 ± 0.013 | -0.0485 ± 0.023 | -0.07 ± 0.027 | -0.284 ± 0.018 | 0.004 ± 0.0014 | 0.0265 ± 0.00071 | -0.049 | 0.0065 ± 0.018 | -0.0015 ± 0.0064 | 0.012 ± 0.0057 | 0.006 ± 0.0014 | -0.0265 ± 0.0021 | -0.0185 ± 0.032 | -0.007 ± 0.0085 | 0.0135 ± 0.0021 | 0.0275 ± 0.019 | -0.0155 ± 0.03 | -0.0075 ± 0.0021 | -0.0205 ± 0.013 | -0.02 ± 0.0057
5 | SAg:CD69 | 0.0215 ± 0.044 | -0.0295 ± 0.016 | -0.039 ± 0.018 | -0.12 ± 0.013 | 0.006 ± 0.03 | -0.0035 ± 0.019 | -0.036 | -0.0075 ± 0.037 | -0.053 ± 0.03 | -0.0305 ± 0.025 | -0.0685 ± 0.0078 | 0.001 ± 0.04 | -0.005 ± 0.023 | -0.021 ± 0.0057 | -0.01 ± 0.017 | -0.016 ± 0.05 | -0.006 ± 0.052 | -0.004 ± 0.013 | -0.0015 ± 0.021 | -0.002 ± 0.016
6 | SAg:CXCL8/IL-8 | 0.022 ± 0.1 | -0.038 ± 0.061 | -0.13 ± 0.021 | -0.304 ± 0.013 | 0.005 ± 0.018 | 0.023 ± 0.0085 | -0.022 | 0.018 ± 0.072 | -0.0025 ± 0.021 | -0.001 ± 0.0057 | 0.0035 ± 0.09 | -0.0145 ± 0.00071 | -0.016 ± 0.011 | -0.0035 ± 0.013 | 0.022 ± 0.023 | 0.037 ± 0.03 | 0.052 ± 0.011 | 0.025 ± 0.0028 | 0.008 ± 0.0071 | 0.037 ± 0.038
7 | SAg:CXCL9/MIG | 0.006 ± 0.024 | 0.002 ± 0.0057 | 0.0025 ± 0.0078 | 0.008 ± 0.0085 | 0 ± 0.0085 | 0.0085 ± 0.0021 | 0.007 | -0.002 ± 0.0028 | -0.013 | -0.016 ± 0.0028 | 0.0035 ± 0.018 | 0.001 ± 0.0028 | -0.009 ± 0.0014 | 0.001 ± 0.014 | 0.001 ± 0.0028 | 0.006 ± 0.0085 | -0.0115 ± 0.023 | 0.006 ± 0.0071 | -0.006 ± 0.0071 | 0.01 ± 0.0099
8 | SAg:PBMC Cytotoxicity | -0.007 ± 0.033 | -0.0015 ± 0.044 | -0.0385 ± 0.03 | -0.0635 ± 0.023 | 0.011 ± 0.021 | 0.003 ± 0.016 | -0.263 | -0.0045 ± 0.021 | 0.0025 ± 0.0021 | -0.061 ± 0.042 | -0.0085 ± 0.028 | -0.022 ± 0.0071 | -0.014 ± 0.031 | -0.0045 ± 0.035 | -0.025 ± 0.017 | -0.04 ± 0.0042 | -0.037 ± 0.037 | 0.001 ± 0.0099 | 0.028 ± 0.067 | -0.039 ± 0.0028
9 | SAg:Proliferation | -0.017 ± 0.047 | -0.052 ± 0.035 | -0.172 ± 0.005 | -0.29 ± 0.021 | 0.0195 ± 0.011 | 0 ± 0.048 | -0.565 | -0.019 ± 0.047 | -0.0125 ± 0.005 | -0.066 ± 0.023 | -0.036 ± 0.031 | -0.021 ± 0.013 | 0.0205 ± 0.053 | -0.006 ± 0.0085 | -0.023 ± 0.023 | -0.03 ± 0.0071 | -0.0345 ± 0.077 | -0.003 ± 0.014 | 0.03 ± 0.037 | 0.007 ± 0.018
10 | SAg:SRB | 0.002 ± 0.0057 | 0.0045 ± 0.013 | -0.009 ± 0.0042 | -0.0205 ± 0.026 | -0.0025 ± 0.0078 | 0.0025 ± 0.018 | -0.084 | -0.0015 ± 0.011 | -0.0095 ± 0.0035 | -0.0045 ± 0.012 | -0.0335 ± 0.026 | -0.0065 ± 0.011 | -0.0065 ± 0.0078 | -0.005 ± 0.016 | -0.01 ± 0.021 | -0.042 ± 0.034 | -0.125 ± 0.044 | -0.014 ± 0.017 | -0.0105 ± 0.028 | -0.013 ± 0.011
